Patent US20240287172A1, “PROTEIN BINDERS TO IRHOM2 EPITOPES” (SCIRHOM GMBH, priority 2019, published 2024)

Columns and labels:
[1] = test system: PMA-induced release of endogenous HB-EGF from human THP-1 monocytic cells; assay: ELISA-based HB-EGF release assay, PMA-induced, THP-1 cells; format: cell-based; details: PMA 25 ng/ml, 6 hours, murine (m) and chimeric (ch) antibodies and IgG at 3 μg/ml, Batimastat at 10 μM
Experimental: In brief, on day 1, Nunc black MaxiSorp® 96-well plates (Thermo Fisher Scientific, USA) were coated for 7 hours with 100 μl per well of rat anti-human HB-EGF capture antibody (provided as part of the DuoSet ELISA kit) at 2 μg/ml TBS at room temperature. Capture antibody solution was removed and MaxiSorp® plates were blocked with 300 μl per well of TBS, 1% BSA at room temperature for 3 hours. […]
Following another round of 4 times washing with 350 μl TBS-T (Carl Roth, Germany) per well on a 96-head plate washer (Tecan Group, Switzerland) and careful removal of all buffer traces after the fourth cycle, 100 μl AttoPhos substrate solution (Promega, USA) per well was added for incubation in the dark at room temperature for 1 hour. Using an infinite M1000 (Tecan Group, Switzerland) microplate reader, the fluorescence of each well was collected at an excitation wavelength of 435 nm and an emission wavelength of 555 nm.

[2] = test system: PMA-induced release of endogenous IL-6R from PBMCs from patients suffering from rheumatoid arthritis; assay: ELISA-based IL-6R release assay, PMA-induced, PBMCs from RA-patients; format: cell-based; details: Homo sapiens, PBMC; PMA 25 ng/ml, 24 hours; chimeric antibodies (CHO) and IgG at 1 μg/ml; Batimastat at 10 μM
Experimental: In brief, on day 1, Nunc black MaxiSorp® 96-well plates (Thermo Fisher Scientific, USA) were coated overnight with 100 μl per well of mouse anti-human IL-6R capture antibody (provided as part of the DuoSet ELISA kit) at 4 μg/ml TBS at 4° C. Meanwhile, 40,000 PBMC from patients suffering from rheumatoid arthritis (STEMCELL Technologies, Canada) cells in 80 μl of normal growth medium were seeded in each well of Greiner CELLSTAR V-bottom 96-well plates (Thermo Fisher Scientific, USA) and pre-incubated with 20 μl per well of standard growth medium supplemented with Batimastat (BB94, Abcam, UK) at 50 μM as positive control (for a final concentration of 10 μM in the resulting 100 μl sample volume), mouse IgG antibody (Thermo Fisher Scientific, USA) at 5 μg/ml as isotype control (for a final concentration of 1 μg/ml in the resulting 100 μl sample volume) or antibodies of the invention at 5 μg/ml (for a final concentration of 1 μg/ml in the resulting 100 μl sample volume) at 37° C., 5% CO2 for 30 minutes. In case of stimulation controls, 20 μl of standard growth medium without test articles were added. […] Using an infinite M1000 (Tecan Group, Switzerland) microplate reader, the fluorescence of each well was collected at an excitation wavelength of 435 nm and an emission wavelength of 555 nm.

In the case of CNC(=O)[C@H](Cc1ccccc1)NC(=O)[C@H](CC(C)C)[C@H](CSc1cccs1)C(=O)NO [Batimastat], the inhibition at 10 µM [1] is reported as 98.9% and the inhibition at 10 µM [2] is reported as 104%.
